This note sets out measurements from patent US20190008848A1, “IDENTIFICATION OF ADDITIONAL ANTI-PERSISTER ACTIVITY AGAINST BORRELIA BURGDORFERI FROM AN FDA DRUG LIBRARY” (THE JOHNS HOPKINS UNIVERSITY, priority 2015, published 2019).

The subject of this data set is stationary phase B. burgdorferi. The data set is described as follows: SYBR Green I/PI viability assay (drug library screen, plate reader). To be noted: for activity against stationary phase B. burgdorferi (in words): screen at 50 μM; for viability at 50 µM: Borreliella burgdorferi, 168 h. On the procedure:
Borrelia burgdorferi strain B31 (ATCC35210) was received from the […] (Manassas, Va., USA) and was grown in BSK-H medium (HiMedia Laboratories, Mumbai, India) and 6% rabbit serum (Sigma Aldrich, St. Louis, Mo., USA). The culture was filtered and sterilized using a […] and incubated in capped sterile 50 mL conical tubes (BD Biosciences, CA, USA) at 33° C. for 7 days without antibiotics until the culture reached stationary phase.
The cultures were examined using a Nikon Eclipse E800 microscope with differential interference contrast and epifluorescent illumination. The pictures were captured using a SPOT slider color camera. A SYBR Green I/PI assay was used to assess the viability of the bacterial sample using the ratio of live to dead B. burgdorferi (measured with green and red fluorescence, respectively) as measured by a plate reader.
Briefly, prediluted drug stock (10 μL) was added to 7 day old stationary phase B. burgdorferi culture (90 μL) to achieve a 50 μM final drug concentration per well. The plates were then incubated at 33° C. for 7 days at which point the SYBR/PI rapid viability assay was performed in a fluorescence plate reader to obtain the green-red fluorescence ratio.

Setting [1] is: Table 3, drugs 50 μM, 7-day old stationary phase cells treated for 7 days.
Setting [2] is: read-out: Residual viable cells (SYBR Green/PI), Table 1, drugs 50 μM, 7 day old stationary phase cells treated for 7 days.
[3] abbreviates: read-out: Residual viable cells (SYBR/PI), Table 3, drugs 50 μM, 7-day old stationary phase cells treated for 7 days.
The mark [4] stands for this setting: read-out: Residual viable cells (SYBR/PI).

Structures can show the parent of a compound that is named as a salt. Where two headings read alike, the source gives them in different places.

Regarding `C[C@@H]1[C@H](O)[C@@H](C)/C=C/C=C/CC/C=C/C=C/C=C/C=C/C(O[C@H]2O[C@H](C)[C@@H](O)[C@H](N)[C@@H]2O)CC2O[C@](O)(CC(O)C(O)CCC(O)CC(O)CC(O)CC(=O)O[C@H]1C)CC(O)C2C(=O)O` (stereo partly drawn) [Nystatin], the “Residual viable cells (SYBR Green/PI)” value (Table 1, drugs 50 μM, 7 day old stationary phase cells treated for 7 days) amounted to 64%. Also, the “Residual viable cells (SYBR/PI)” value under setting [1] was 64%. Moreover, the “activity against stationary phase B. burgdorferi (in words)” value (7 days) is reported as “reasonable activity”.

`CCN(CC)CCOc1ccc2c(c1)C(=O)c1cc(OCCN(CC)CC)ccc1-2` [Tilorone, Tilorone dihydrochloride]: the viability at 50 µM under setting [2] is 44% and the viability at 50 µM under setting [3] is 44%. Moreover, the “activity against stationary phase B. burgdorferi (in words)” value (7 days) is reported as “good activity”.

With `O=C(Nc1ccc(Cl)cc1)Nc1ccc(Cl)c(Cl)c1` [3,4,4′-Trichlorocarbanilide], the “Residual viable cells (SYBR/PI)” value under setting [1] is recorded as 45%.

Regarding `O=c1n(Cl)c(=O)n(Cl)c(=O)n1Cl` [Symclosene (Trichloroisocyanuric acid), Trichloroisocyanuric acid], the viability at 50 µM under setting [4] is 60%.

`CCCCCCCCCCCCCCCCCCCCCCO` [Docosanol]: the viability at 50 µM under setting [3] amounted to 55%.

With `O=C(Cn1ccnc1[N+](=O)[O-])NCc1ccccc1` [Benznidazole], the viability at 50 µM under setting [3] is 53%.

Regarding `CCCc1cc(C(N)=S)ccn1` [Protionamide], the viability at 50 µM under setting [3] stood at 63%.

As to `O=C(N/N=C/c1ccc([N+](=O)[O-])o1)c1cc([N+](=O)[O-])cc([N+](=O)[O-])c1O` [Nifursol], the viability at 50 µM under setting [3] stood at 51%.

For `Clc1ccccc1C(c1ccccc1)(c1ccccc1)n1ccnc1` [Clotrimazole], the viability at 50 µM under setting [3] was 68%.

On to `Nc1ccn([C@@H]2CS[C@H](CO)O2)c(=O)n1` [Lamivudine], for which the viability at 50 µM by setting is: under setting [2], 58%; under setting [3], 58%.

Regarding `COC(=O)Nc1nc2ccc([S+]([O-])c3ccccc3)cc2[nH]1` (stereo not drawn) [Oxfendazole], the viability at 50 µM under setting [2] came out at 54% and the viability at 50 µM under setting [3] amounted to 54%.

As to `CCN(CC)CCNc1ccc(CO)c2sc3ccccc3c(=O)c12` [Hycanthone], the viability at 50 µM is, setting by setting: under setting [2], 45%; under setting [3], 45%.

`CC(C)[C@H](N)C(=O)OCCOCn1cnc2c(=O)[nH]c(N)nc21` [Valacyclovir]: under setting [3], the viability at 50 µM was 58%.

Consider `O=c1[nH]c(=O)n([C@H]2C[C@H](O)[C@@H](CO)O2)cc1C(F)(F)F` [Trifluridine], for which the viability at 50 µM under setting [3] is 55%.

`NC1CCN(c2c(F)cc3c(=O)c(C(=O)O)cn(C4CC4)c3c2Cl)C1` (stereo not drawn) [Clinafloxacin]: the viability at 50 µM under setting [3] was 60%.

As to `CN1CCN(c2c(F)cc3c(=O)c(C(=O)O)cn(CCF)c3c2F)CC1` [Fleroxacin], the viability at 50 µM under setting [3] came to 73%.

As for `O=C(Nc1ccccc1)c1ccccc1O` [Salicylanilide], the viability at 50 µM under setting [4] stood at 63%.

In the case of `C[C@H]1COc2c(C3(N)CC3)c(F)cc3c(=O)c(C(=O)O)cn1c23` [Pazufloxacin], under setting [3], the viability at 50 µM stood at 69%.

In the case of `Clc1ccc(CO/N=C(\Cn2ccnc2)c2ccc(Cl)cc2Cl)c(Cl)c1` [Oxiconazole nitrate], the viability at 50 µM by setting is: under setting [2], 62%; under setting [3], 62%.

On to `CCCOc1ccc2nc(NC(=O)OC)[nH]c2c1` [Oxibendazole], for which the viability at 50 µM under setting [2] stood at 51% and the viability at 50 µM under setting [3] is 51%.

Regarding `CC1(C)S[C@@H]2[C@H](NC(=O)[C@H](N)c3ccccc3)C(=O)N2[C@H]1C(=O)O` [Ampicillin], the viability at 50 µM under setting [3] came to 64%.

Turning to `Cc1c(O)cccc1C(=O)N[C@@H](CSc1ccccc1)[C@H](O)CN1C[C@H]2CCCC[C@H]2C[C@H]1C(=O)NC(C)(C)C` [Nelfinavir mesylate], the viability at 50 µM under setting [3] amounted to 66%.

On to `CC(C)Cn1cnc2c(N)nc3ccccc3c21` [Imiquimod], for which the viability at 50 µM under setting [4] was found to be 64%.

As for `O=C1Nc2ccc(Cl)cc2[C@@](C#CC2CC2)(C(F)(F)F)O1` [Efavirenz], the viability at 50 µM under setting [3] was 60%.

Take `COP(=O)(OC)C(O)C(Cl)(Cl)Cl` (stereo not drawn) [Metrifonate]: the viability at 50 µM under setting [4] is 51%.

Take `CCOc1ccc2nc3cc(N)ccc3c(N)c2c1` [Ethacridine lactate]: the viability at 50 µM under setting [2] came out at 48% and the viability at 50 µM under setting [3] is 48%.

Take `COC1=CC(=O)C[C@@H](C)[C@]12Oc1c(Cl)c(OC)cc(OC)c1C2=O` [Griseofulvin]: the viability at 50 µM under setting [2] was found to be 63% and the viability at 50 µM under setting [3] was 63%.

In the case of `NC(=O)c1ncn([C@@H]2O[C@H](CO)[C@@H](O)[C@H]2O)n1` [Ribavirin], the viability at 50 µM was determined as 63% under setting [2] and 63% under setting [3].

For the compound `CC(C)(C)CC(C)(C)c1ccc(O)c(Cc2ccc(Cl)cc2Cl)c1` [Clofoctol], the viability at 50 µM under setting [3] came to 73%.

Regarding `Nc1ccc(S(=O)(=O)Nc2ccc(Cl)nn2)cc1` [Sulfachlorpyridazine], the viability at 50 µM under setting [4] turned out to be 58%.

For the compound `COC(=O)c1ccc(O)c2nc3c(C=O)c(O)cc(O)c3nc12` [Lomofungin], the viability at 50 µM under setting [3] is 58%.

With `C[C@H]1[C@H](OC(=O)CCC(=O)O)O[C@@H]2O[C@@]3(C)CC[C@H]4[C@H](C)CC[C@@H]1[C@@]24OO3` [Artesunate], under setting [3], the viability at 50 µM worked out at 58%.

`[I-].[K+]` [Potassium iodide]: the “Residual viable cells (SYBR/PI)” value under setting [1] is listed as 65%.

As for `Cc1nc(C)c(Cl)c(O)c1Cl` [Clopidol], the viability at 50 µM under setting [3] is 57%.

For `COC(=O)Nc1nc2cc(C(=O)c3ccc(F)cc3)ccc2[nH]1` [Flubendazole], the viability at 50 µM under setting [2] is 54% and the viability at 50 µM under setting [3] was determined as 54%.

`NC12CC3CC(CC(C3)C1)C2` [Amantadine hydrochloride]: the “Residual viable cells (SYBR/PI)” value (Borrelia burgdorferi, 7 days, 50 μM) turned out to be 69%. Further, the viability at 50 µM under setting [3] was found to be 65%.

Take `O=[N+]([O-])c1ccc(O)c2ncccc12` [Nitroxoline (8-hydroxy 5-nitroquinoline), 8-hydroxy 5-nitroquinoline]: the viability at 50 µM under setting [3] came to 66%.

With `Cc1cc(C2CCCCC2)n(O)c(=O)c1` [Ciclopirox olamine], the viability at 50 µM under setting [3] was 66%.

With `NCC[C@H](O)C(=O)N[C@@H]1C[C@H](N)[C@@H](O[C@H]2O[C@H](CN)[C@@H](O)[C@H](O)[C@H]2O)[C@H](O)[C@H]1O[C@H]1O[C@H](CO)[C@@H](O)[C@H](N)[C@H]1O` [Amikacin], the viability at 50 µM under setting [3] came out at 57%.

On to `CO[C@H]1/C=C/O[C@@]2(C)Oc3c(C)c(O)c4c(O)c(c5c(nc6cc(C)ccn65)c4c3C2=O)NC(=O)/C(C)=C\C=C\[C@H](C)[C@H](O)[C@@H](C)[C@@H](O)[C@@H](C)[C@H](OC(C)=O)[C@@H]1C` [Rifaximin], for which the viability at 50 µM under setting [3] came to 51%.

Consider `N#CCC(=O)NN` [Cyacetacide], for which the viability at 50 µM by setting is: under setting [2], 61%; under setting [3], 61%.

In the case of `C[C@@H](c1ncncc1F)[C@](O)(Cn1cncn1)c1ccc(F)cc1F` [Voriconazole], under setting [3], the viability at 50 µM was 65%.

In the case of `c1ccc(C2CN3CCSC3=N2)cc1` (stereo not drawn) [Tetramisole], the viability at 50 µM was determined as 48% under setting [2] and 48% under setting [3].

For the compound `CCC[S+]([O-])c1ccc2[nH]c(NC(=O)OC)nc2c1` (stereo not drawn) [Ricobendazole (Albendazole oxide), Albendazole oxide], the viability at 50 µM under setting [4] turned out to be 57%.

As to `Nc1ccc(C(=O)O)c(O)c1` [4-Aminosalicylic acid], the viability at 50 µM under setting [4] worked out at 66%.

Turning to `O=c1[nH]cnc2c1ncn2[C@H]1CC[C@@H](CO)O1` [Didanosine, 2′-3′-dideoxyinosine], the viability at 50 µM under setting [2] worked out at 61% and the viability at 50 µM under setting [3] was 61%.
